Patent publication US20190105367A1, “ANTIMICROBIAL 4-OXOQUINOLIZINES” (Emergent Product Development Gaithersburg Inc., priority 2011, published 2019)
pIC50: −log10 of the molar value. ≈ marks a conversion by molar mass, not a printed value. Where two headings read alike, the source gives them in different places.

Experiments:
A. baumannii A401 [1] = assay: MIC without and with sub-inhibitory polymyxin B (Example 4); type: cell-based, Acinetobacter baumannii; conditions: for MIC without PB/MIC + PB: ratio, PB 0.06 μg/ml; for MIC: Acinetobacter baumannii
A. baumanii 19606 = assay: MIC, standard panel of Gram-positive and Gram-negative strains (Example 2); type: cell-based; conditions: Acinetobacter baumannii
A. baumannii A387 = assay: Preliminary MBC without and with sub-inhibitory polymyxin B (Example 4); type: cell-based, Acinetobacter baumannii
S. aureus SMITH = assay: MIC, panel of quinolone-resistant strains (Example 2); type: cell-based; conditions: Staphylococcus aureus; CIP R; read-out: MIC S. aureus SMITH
A. baumannii A472 = assay: MIC without and with sub-inhibitory polymyxin B (Example 4); type: cell-based, Acinetobacter baumannii; conditions: for MIC without PB/MIC + PB: A. baumannii A472, ratio; for MIC: Acinetobacter baumannii
E. faecalis 29212 = assay: MIC, standard panel of Gram-positive and Gram-negative strains (Example 2); type: cell-based, Enterococcus faecalis; conditions: Enterococcus faecalis, 29212; read-out: MIC E. faecalis 29212
Cytotoxicity (Example 7) = type: cell-based; conditions: human, HEPG2 V1 cells
Method: The 4-oxoquinolizine compounds of the invention preferably have a low cytotoxicity against human cells. […].
Cytotoxicity was determined for the instant 4-oxoquinolizine compounds which show low cytotoxicity. (see Table 17 following). […]

B. thailandensis = type: cell-based, Burkholderia thailandensis; conditions: pH 7 vs pH 5
A. baumannii A401 [2] = assay: Preliminary MBC without and with sub-inhibitory polymyxin B (Example 4); type: cell-based, Acinetobacter baumannii; conditions: Acinetobacter baumannii
[3] = test system: GN56 Acinetobacter baumannii levofloxacin resistant clinical isolate; assay: Chequerboard synergy with polymyxin B, FICI (Example 6); type: cell-based
From the text: (§1) A chequerboard technique was used to identify possible synergistic or antagonistic interactions between the 4-oxoquinolizines compounds, levofloxacin and polymyxin B. Levofloxacin was included as a control. […] Final dilutions were made in Mueller-Hinton broth, the specific test medium used for MIC determinations according to CLSI guidelines (CLSI. Methods for Dilution Antimicrobial Susceptibility Tests for Bacteria That Grow Aerobically; Approved Standard-Eighth Edition (2009). CLSI Document M07-A8. CLSI, Wayne, Pa. 19087-1898, USA.). The test medium used was a cation-adjusted Mueller-Hinton Broth II (Becton Dickinson UK Ltd., Oxford Science Park, Oxford, UK, OX4 4DQ).
(§2) The compounds 2, 33 and 35, as well as levofloxacin were tested in combination with polymyxin B on the following isolates: GN31 Acinetobacter baumannii—antibiotic susceptible clinical isolate, GN52 Acinetobacter baumannii—levofloxacin resistant clinical isolate, GN56 Acinetobacter baumannii—levofloxacin resistant clinical isolate, GN48 Klebsiella pneumoniae—NCTC 13443—NDM-1-metallo-β-lactamase and GN10 Pseudomonas aeruginosa—ATCC 27853—antibiotic susceptible reference isolate. All isolates are from the collection maintained at Quotient Bioresearch Ltd., Cambridge, UK.
(§3) The MIC values for the compounds and polymyxin B and levofloxacin were determined by broth microdilution following CLSI guidelines, and the MICs of agents in combination were determined as described by Pillai et. al (Pillai S K, Moellering R C Jr, Eliopoulis G M; Antimicrobial Combinations in Antibiotics in Laboratory Medicine 5th Edition (V. Lorian Ed) (2005) p 365-440). Initial MIC results were used to determine the microtiter plate patterns for the chequerboards. A suitable doubling dilution concentration range was selected such that the combination antibiotic range was at least two concentrations above and four concentrations below the MIC for each isolate. A fixed range of 0.008 to 8 mg/L was tested for polymyxin B except in the case of A. baumannii GN31 where a range of 0.004 to 4 mg/L was tested when in combination with the compounds 2, 33 and 35 as well as levofloxacin.
(§4) From the raw data, fractional inhibitory concentration indices (FICI) were determined for the compounds of the invention and levofloxacin together with polymyxin B for each isolate as follows:
(§5) FICX=concentration of the combination antibiotic in a particular row MIC of the combination drug alone
(§6) FICY=MIC of polymyxin B in combination[…]MIC of the polymyxin B alone
(§7) Additionally isobolograms were created to represent the same data visually. Here, the MIC of polymyxin B was plotted against every concentration of the combination antibiotic up to the MIC.

[4] = test system: GN52 Acinetobacter baumannii levofloxacin resistant clinical isolate; assay: as above; type: cell-based
From the text: as §1, §2, §3, §4, §5, §6, §7

[5] = test system: GN48 Klebsiella pneumoniae NCTC 13443 NDM-1-β-lactamase producing isolate; assay: as above; type: cell-based
From the text: as §1, §2, §3, §4, §5, §6, §7

[6] = test system: GN31 Acinetobacter baumannii antibiotic susceptible isolate; assay: as above; type: cell-based
From the text: as §1, §2, §3, §4, §5, §6, §7

[7] = A baumannii A 401, 1st experiment
[8] = A401, A baumannii A 401, +0.06 μg/ml PB, 2nd experiment, read-out: MIC
[9] = Acinetobacter baumannii, A387, A. baumannii A387, +0.06 μg/ml PB, 2nd experiment, read-out: MBC
[10] = Acinetobacter baumannii, A387, read-out: MBC +0.06 μg/ml PB, A. baumannii A387, +0.06 μg/ml polymyxin B, 1st experiment
[11] = A472, A. baumannii A472, +[…] PB, 2nd experiment, read-out: MIC
[12] = A472, read-out: MIC +[…] PB, A. baumannii A472, +[…] polymyxin B, 1st experiment
[13] = A401, A baumannii A 401, +0.06 μg/ml PB, 2nd experiment, read-out: MBC
[14] = A401, read-out: MBC +0.06 μg/ml PB, A baumannii A 401, +0.06 μg/ml polymyxin B, 1st experiment
[15] = in combination with polymyxin B
[16] = polymyxin B with the named antibiotic

Cc1c(-c2ccc(N)cc2)c(F)cn2c(=O)c(C(=O)O)cc(C3CC3)c12 [Compound 7, 8-(4-amino-phenyl)-1-cyclopropyl-7-fluoro-9-methyl-4-oxo-quinolizine-3-carboxylic acid]
MIC +0.06 μg/ml PB (A. baumannii A401 [1]; A baumannii A 401, +0.06 μg/ml polymyxin B, 1st experiment): 0.5 µg/mL
MIC without PB/MIC + PB (A. baumannii A401 [1]; [7]): 8
MIC (A. baumannii A401 [1]; [8]): 1 µg/mL (≈ 2.84 µM)
MIC (A. baumanii 19606): 0.5 µg/mL (≈ 1.42 µM)
MBC (A. baumannii A387; [9]): ≤ 0.03 µg/mL
MBC (A. baumannii A387; [10]): ≤ 0.03 µg/mL
MIC (S. aureus SMITH): 0.25 µg/mL (≈ 0.709 µM)
MIC without PB/MIC + PB (A. baumannii A472; 1st experiment): ≥128
MIC (A. baumannii A472; [11]): ≤ 0.03 µg/mL
MIC (A. baumannii A472; [12]): ≤ 0.03 µg/mL
MIC (E. faecalis 29212): 0.06 µg/mL (≈ 0.17 µM)
pIC50 (Cytotoxicity (Example 7)): 3.82
Dilutions improvement shift on B. thailandensis MIC90 (between pH 7 and pH 5) (B. thailandensis): Yes, 4x
MBC (A. baumannii A401 [2]; [13]): 0.5 µg/mL (≈ 1.42 µM)
MBC (A. baumannii A401 [2]; [14]): 0.5 µg/mL

C[C@H]1COc2c(N3CCN(C)CC3)c(F)cc3c(=O)c(C(=O)O)cn1c23 [Levofloxacin, reference compound]
MIC without PB/MIC + PB (A. baumannii A401 [1]; [7]): 1
MBC (A. baumannii A387; [9]): 4 µg/mL (≈ 11.1 µM)
MIC without PB/MIC + PB (A. baumannii A472; 1st experiment): 4
MIC (A. baumannii A472; [11]): 4 µg/mL (≈ 11.1 µM)
MIC (A. baumannii A472; [12]): 4 µg/mL (≈ 11.1 µM)
Combination drug MIC alone [3]: 32 µg/mL
FICx [3]: 0.13
FICy [3]: 1.00
FICI ([3]; combination with polymyxin B): 1.13
Synergy ([3]; combination with polymyxin B): Indifferent (indifference (FICI 0.76 to 2.75))
Combination drug concentration in combination [3, 15]: 4 mg/L
Polymyxin B MIC in combination [3, 16]: 0.5 µg/mL
Combination drug MIC alone [4]: 8 µg/mL
FICx [4]: 0.13
FICy [4]: 1.00
FICI ([4]; combination with polymyxin B): 1.13
Synergy ([4]; combination with polymyxin B): Indifferent (indifference (FICI 0.76 to 2.75))
Combination drug concentration in combination [4, 15]: 1 mg/L
Polymyxin B MIC in combination [4, 16]: 0.5 µg/mL
Combination drug MIC alone [5]: 64 µg/mL
FICx [5]: 0.13
FICy [5]: 1.00
FICI ([5]; combination with polymyxin B): 1.13
Synergy ([5]; combination with polymyxin B): Indifferent (indifference (FICI 0.76 to 2.75))
Combination drug concentration in combination [5, 15]: 8 mg/L
Polymyxin B MIC in combination [5, 16]: 0.5 µg/mL
Combination drug MIC alone [6]: 0.06 µg/mL
FICx [6]: 0.13
FICy [6]: 1.00
FICI ([6]; combination with polymyxin B): 1.13
Synergy ([6]; combination with polymyxin B): Indifferent (indifference (FICI 0.76 to 2.75))
Combination drug concentration in combination [6, 15]: 0.008 mg/L
Polymyxin B MIC in combination [6, 16]: 0.5 µg/mL
MBC (A. baumannii A401 [2]; [13]): 8 µg/mL (≈ 22.1 µM)

COc1c(N2C[C@@H]3CCCN[C@@H]3C2)c(F)cc2c(=O)c(C(=O)O)cn(C3CC3)c12 [Moxifloxacin]
MIC without PB/MIC + PB (A. baumannii A401 [1]; [7]): 2
MBC (A. baumannii A387; A. baumannii A387, +0.06 μg/ml PB, 2nd experiment): 8 µg/mL (≈ 19.9 µM)
MIC without PB/MIC + PB (A. baumannii A472; 1st experiment): 0.5
MIC (A. baumannii A472; [11]): 4 µg/mL (≈ 9.96 µM)
MIC (A. baumannii A472; [12]): 32 µg/mL (≈ 79.7 µM)
MBC (A. baumannii A401 [2]; A401, A baumannii A 401, +0.06 μg/ml PB, 2nd experiment): 8 µg/mL (≈ 19.9 µM)
MBC (A. baumannii A401 [2]; [14]): 8 µg/mL

C[C@@H](O)[C@H]1C(=O)N2C(C(=O)O)=C(S[C@@H]3CN[C@H](C(=O)N(C)C)C3)[C@H](C)[C@H]12 [Meropenem]
MIC (A. baumannii A401 [1]; [8]): 4 µg/mL (≈ 10.4 µM)
MIC (A. baumannii A401 [1]; A401, read-out: MIC +0.06 μg/ml PB, A baumannii A 401, +0.06 μg/ml polymyxin B, 1st experiment): 4 µg/mL
MBC (A. baumannii A387; [9]): 2 µg/mL (≈ 5.22 µM)
MBC (A. baumannii A387; [10]): 1 µg/mL
MIC (A. baumannii A472; [11]): ≤ 0.125 µg/mL
MIC (A. baumannii A472; [12]): ≤ 0.125 µg/mL
MBC (A. baumannii A401 [2]; [13]): 4 µg/mL (≈ 10.4 µM)
MBC (A. baumannii A401 [2]; [14]): 4 µg/mL
